In the NIST ThermoML archive (doi:10.1016/j.jct.2015.05.024):

Test: xn = mol fraction of the nth substance listed
Conditions: 100 kPa, Liquid; for speed of sound: Frequency=5 MHz, Pulse-echo method; for mass density: Vibrating tube method

OCCOCCOCCO [triethylene glycol] + O
Conditions	mass density [kg/m3]	speed of sound [m/s]
293.15 K, x1 = 0.0107	1010.53	–
293.15 K, x1 = 0.02047	1020.73	–
293.15 K, x1 = 0.03972	1038.14	–
293.15 K, x1 = 0.04979	1045.97	–
293.15 K, x1 = 0.06996	1059.39	–
293.15 K, x1 = 0.09424	1072.14	–
293.15 K, x1 = 0.1481	1091	–
293.15 K, x1 = 0.1752	–	1744.6
293.15 K, x1 = 0.1869	–	1743.5
293.15 K, x1 = 0.2006	1101.53	–
293.15 K, x1 = 0.2052	–	1740.7
293.15 K, x1 = 0.2239	–	1736.8
293.15 K, x1 = 0.2502	1107.61	–
293.15 K, x1 = 0.2513	–	1730.1
293.15 K, x1 = 0.2755	–	1723.7
293.15 K, x1 = 0.2988	1111.51	–
293.15 K, x1 = 0.3023	–	1716.7
293.15 K, x1 = 0.3492	1114.3	–
293.15 K, x1 = 0.3754	–	1699
293.15 K, x1 = 0.3925	1116.06	–
293.15 K, x1 = 0.4338	–	1686.6
293.15 K, x1 = 0.4502	1117.81	–
293.15 K, x1 = 0.4877	1118.7	–
293.15 K, x1 = 0.5004	1118.97	–
293.15 K, x1 = 0.5151	–	1671.3
293.15 K, x1 = 0.5739	1120.23	–
293.15 K, x1 = 0.58	1120.32	–
293.15 K, x1 = 0.6233	–	1654.9
293.15 K, x1 = 0.6465	1121.14	–
293.15 K, x1 = 0.651	1121.19	–
293.15 K, x1 = 0.7008	1121.67	–
293.15 K, x1 = 0.7471	1122.06	–
293.15 K, x1 = 0.7677	1122.21	–
293.15 K, x1 = 0.7815	–	1641.2
293.15 K, x1 = 0.82	1122.57	–
293.15 K, x1 = 0.8623	1122.83	–
293.15 K, x1 = 0.8792	1122.93	–
293.15 K, x1 = 0.8924	–	1634.7
293.15 K, x1 = 0.8975	1123.03	–
293.15 K, x1 = 0.9203	1123.15	–
293.15 K, x1 = 0.9514	1123.32	–
293.15 K, x1 = 0.9634	–	1630.2
293.15 K, x1 = 0.9692	1123.41	–
293.15 K, x1 = 1	1123.56	1629
298.15 K, x1 = 0.000655	–	1499.7
298.15 K, x1 = 0.003093	–	1510.2
298.15 K, x1 = 0.008719	–	1533.1
298.15 K, x1 = 0.0107	1009.15	–
298.15 K, x1 = 0.01513	–	1557
298.15 K, x1 = 0.02047	1019.12	–
298.15 K, x1 = 0.02053	–	1575.4
298.15 K, x1 = 0.0297	–	1603.3
298.15 K, x1 = 0.03817	–	1625.7
298.15 K, x1 = 0.03972	1036.1	–
298.15 K, x1 = 0.04526	–	1642.1
298.15 K, x1 = 0.04979	1043.71	–
298.15 K, x1 = 0.05106	–	1654.1
298.15 K, x1 = 0.05839	–	1667.6
298.15 K, x1 = 0.0674	–	1681.9
298.15 K, x1 = 0.06996	1056.75	–
298.15 K, x1 = 0.0766	–	1694.1
298.15 K, x1 = 0.08268	–	1701
298.15 K, x1 = 0.08879	–	1707
298.15 K, x1 = 0.09424	1069.14	–
298.15 K, x1 = 0.09568	–	1712.9
298.15 K, x1 = 0.1024	–	1717.7
298.15 K, x1 = 0.1041	–	1718.8
298.15 K, x1 = 0.1099	–	1722.2
298.15 K, x1 = 0.1152	–	1724.8
298.15 K, x1 = 0.1205	–	1727
298.15 K, x1 = 0.127	–	1729.3
298.15 K, x1 = 0.1291	–	1729.9
298.15 K, x1 = 0.1383	–	1731.9
298.15 K, x1 = 0.1474	–	1733.1
298.15 K, x1 = 0.1481	1087.52	–
298.15 K, x1 = 0.1587	–	1733.7
298.15 K, x1 = 0.1675	–	1733.4
298.15 K, x1 = 0.1757	–	1732.8
298.15 K, x1 = 0.1834	–	1731.9
298.15 K, x1 = 0.2006	1097.87	–
298.15 K, x1 = 0.2026	–	1728.7
298.15 K, x1 = 0.221	–	1724.7
298.15 K, x1 = 0.2393	–	1720.1
298.15 K, x1 = 0.2502	1103.88	–
298.15 K, x1 = 0.2566	–	1715.5
298.15 K, x1 = 0.2906	–	1706.3
298.15 K, x1 = 0.2988	1107.76	–
298.15 K, x1 = 0.3492	1110.52	–
298.15 K, x1 = 0.3533	–	1690.5
298.15 K, x1 = 0.3925	1112.26	–
298.15 K, x1 = 0.427	–	1674.4
298.15 K, x1 = 0.4502	1113.99	–
298.15 K, x1 = 0.4877	1114.87	–
298.15 K, x1 = 0.5004	1115.13	–
298.15 K, x1 = 0.5126	–	1658.3
298.15 K, x1 = 0.5739	1116.38	–
298.15 K, x1 = 0.58	1116.47	–
298.15 K, x1 = 0.5907	–	1645.7
298.15 K, x1 = 0.6465	1117.3	–
298.15 K, x1 = 0.651	1117.35	–
298.15 K, x1 = 0.7008	1117.83	–
298.15 K, x1 = 0.7471	1118.22	–
298.15 K, x1 = 0.7663	–	1627.2
298.15 K, x1 = 0.7677	1118.37	–
298.15 K, x1 = 0.82	1118.72	–
298.15 K, x1 = 0.8623	1118.97	–
298.15 K, x1 = 0.8792	1119.06	–
298.15 K, x1 = 0.8917	–	1620
298.15 K, x1 = 0.8975	1119.16	–
298.15 K, x1 = 0.9203	1119.28	–
298.15 K, x1 = 0.9514	1119.44	–
298.15 K, x1 = 0.9628	–	1615.6
298.15 K, x1 = 0.9692	1119.53	–
298.15 K, x1 = 1	1119.69	1613.5
303.15 K, x1 = 0.001004	–	1513.5
303.15 K, x1 = 0.002763	–	1520.4
303.15 K, x1 = 0.007937	–	1539.9
303.15 K, x1 = 0.0107	1007.53	–
303.15 K, x1 = 0.01123	–	1551.5
303.15 K, x1 = 0.01908	–	1577
303.15 K, x1 = 0.02047	1017.29	–
303.15 K, x1 = 0.0244	–	1592.6
303.15 K, x1 = 0.03263	–	1614.3
303.15 K, x1 = 0.03972	1033.87	–
303.15 K, x1 = 0.0428	–	1637.2
303.15 K, x1 = 0.05068	–	1652.5
303.15 K, x1 = 0.05793	–	1664.7
303.15 K, x1 = 0.06625	–	1676.8
303.15 K, x1 = 0.07426	–	1686.6
303.15 K, x1 = 0.08178	–	1694.5
303.15 K, x1 = 0.08886	–	1700.8
303.15 K, x1 = 0.0936	–	1704.5
303.15 K, x1 = 0.09852	–	1707.8
303.15 K, x1 = 0.102	–	1709.9
303.15 K, x1 = 0.1059	–	1712.1
303.15 K, x1 = 0.1101	–	1714.1
303.15 K, x1 = 0.1102	–	1714.2
303.15 K, x1 = 0.1147	–	1716
303.15 K, x1 = 0.1193	–	1717.7
303.15 K, x1 = 0.1248	–	1719.3
303.15 K, x1 = 0.1295	–	1720.5
303.15 K, x1 = 0.1308	–	1720.7
303.15 K, x1 = 0.1337	–	1721.3
303.15 K, x1 = 0.1393	–	1722.1
303.15 K, x1 = 0.1423	–	1722.4
303.15 K, x1 = 0.1457	–	1722.6
303.15 K, x1 = 0.1695	–	1722.1
303.15 K, x1 = 0.1857	–	1719.9
303.15 K, x1 = 0.2042	–	1716.3
303.15 K, x1 = 0.2252	–	1711.2
303.15 K, x1 = 0.2499	–	1704.6
303.15 K, x1 = 0.3027	–	1690
303.15 K, x1 = 0.3394	–	1680.6
303.15 K, x1 = 0.4052	–	1665.7
303.15 K, x1 = 0.4916	–	1649
303.15 K, x1 = 0.6074	–	1630
303.15 K, x1 = 0.7552	–	1614
303.15 K, x1 = 0.8683	–	1607.4
303.15 K, x1 = 0.9616	–	1601.7
303.15 K, x1 = 1	–	1599.1
